From paper PMC11061835, “Elucidating the Mechanism of Metabolism of Cannabichromene by Human Cytochrome P450s” (Journal of Natural Products, 2024)
Values joined by “and” are separate entries in the source; they are usually repeats but may differ in a detail not shown here. Equal entries are not always repeated.

Experiments:
CYP2C8 with CPR = molecular target: T1, CYP2C8 with CPR (Homo sapiens, UniProt P10632); test: NADPH activity assay, CYP2C8 with CPR; type: biochemical; settings: CYP2C8, CBC 50 μM vs substrate-free
T1 construct: His-tag; made in house; host or cells: E. coli DH-5α with pTGro7 plasmid (CYP)
T1 sequence (P10632 1-490): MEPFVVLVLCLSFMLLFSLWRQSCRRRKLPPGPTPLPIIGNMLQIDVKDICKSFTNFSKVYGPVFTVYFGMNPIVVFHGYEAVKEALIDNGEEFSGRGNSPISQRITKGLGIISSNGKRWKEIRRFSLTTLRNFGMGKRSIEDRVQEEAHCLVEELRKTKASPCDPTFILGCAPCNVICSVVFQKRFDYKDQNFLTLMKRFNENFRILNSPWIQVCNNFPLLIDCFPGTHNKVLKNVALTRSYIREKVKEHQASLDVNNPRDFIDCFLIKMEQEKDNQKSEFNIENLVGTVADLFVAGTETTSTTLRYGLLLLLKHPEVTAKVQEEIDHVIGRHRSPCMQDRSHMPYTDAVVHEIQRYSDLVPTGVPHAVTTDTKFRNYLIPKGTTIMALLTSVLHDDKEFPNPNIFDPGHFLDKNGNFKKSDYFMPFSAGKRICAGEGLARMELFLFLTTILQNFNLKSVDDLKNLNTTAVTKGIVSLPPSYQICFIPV
T1 sequence (P16435 1-677 partner): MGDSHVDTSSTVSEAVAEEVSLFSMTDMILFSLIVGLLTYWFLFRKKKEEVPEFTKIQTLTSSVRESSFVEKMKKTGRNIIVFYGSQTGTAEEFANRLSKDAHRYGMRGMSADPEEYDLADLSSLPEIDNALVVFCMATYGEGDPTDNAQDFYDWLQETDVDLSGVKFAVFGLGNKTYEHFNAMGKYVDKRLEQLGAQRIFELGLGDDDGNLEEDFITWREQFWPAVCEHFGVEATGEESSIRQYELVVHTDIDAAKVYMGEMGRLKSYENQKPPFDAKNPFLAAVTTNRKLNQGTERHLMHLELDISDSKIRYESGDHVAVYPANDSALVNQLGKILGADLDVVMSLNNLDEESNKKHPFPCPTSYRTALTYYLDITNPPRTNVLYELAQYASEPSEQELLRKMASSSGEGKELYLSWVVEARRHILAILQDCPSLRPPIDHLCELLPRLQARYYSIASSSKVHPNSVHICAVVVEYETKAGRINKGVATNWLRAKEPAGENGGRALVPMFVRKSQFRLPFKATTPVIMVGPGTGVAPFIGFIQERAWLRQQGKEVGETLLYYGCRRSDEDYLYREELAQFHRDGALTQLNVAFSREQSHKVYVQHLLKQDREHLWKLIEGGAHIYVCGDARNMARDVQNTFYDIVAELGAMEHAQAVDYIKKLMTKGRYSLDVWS
Experimental: CYP-mediated NADPH oxidation was measured using kinetics mode in a Cary 300 UV–vis spectrometer (Agilent Technologies). 0.2 μM (final concentration) of CYP was taken in 0.1 M potassium phosphate buffer (pH 7.4) and incubated with 0.6 μM (final concentration) of CPR for 5 min with a reaction volume of 400 μL. The reaction was initiated with 200 μM of NADPH, and the absorption change was monitored over 10 min at 340 nm. The rate of NADPH consumption (or NADPH to NADP^+ conversion) was calculated by taking the molar extinction coefficient as 6.22 mM^–1 cm^–1 at 340 nm. To estimate the change in NADPH oxidation in the presence of CBC, both CYP and CPR were further incubated using CBC (final concentration 50 μM) for 5 min followed by measuring the change in absorbance at 340 nm as discussed earlier.

CYP3A4 = CYP3A4 (Homo sapiens, UniProt P08684); test: Spectroscopic titration (Soret shift), CYP3A4; type: binding; parameters: His-tag; made in house; host or cells: E. coli DH-5α with pTGro7 plasmid; settings: CYP3A4, absence of CPR
CYP3A4, sequence (P08684 whole entry): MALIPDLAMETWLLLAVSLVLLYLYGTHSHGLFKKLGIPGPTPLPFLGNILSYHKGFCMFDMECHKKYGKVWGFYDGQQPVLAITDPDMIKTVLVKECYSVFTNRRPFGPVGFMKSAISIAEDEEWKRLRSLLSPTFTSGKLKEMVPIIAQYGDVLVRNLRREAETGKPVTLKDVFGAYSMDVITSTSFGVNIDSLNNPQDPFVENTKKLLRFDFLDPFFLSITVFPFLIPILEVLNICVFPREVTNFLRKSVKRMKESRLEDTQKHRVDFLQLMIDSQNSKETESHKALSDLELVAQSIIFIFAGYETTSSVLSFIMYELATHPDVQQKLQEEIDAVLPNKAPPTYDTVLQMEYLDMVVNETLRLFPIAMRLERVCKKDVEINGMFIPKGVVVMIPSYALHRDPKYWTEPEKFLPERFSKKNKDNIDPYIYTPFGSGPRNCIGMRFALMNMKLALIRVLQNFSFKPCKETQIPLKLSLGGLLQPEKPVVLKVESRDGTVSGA
Experimental: CBC binding to various CYPs was determined by analyzing the Soret shift from ∼417 to ∼390 nm. CBC (stock 10 mM) was dissolved in ethanol and titrated with different CYPs at room temperature. Buffer-exchanged CYP2J2, CYP2D6, CYP3A4, and CYP2C8 (concentrations of proteins were kept between 4 and 5 μM) were dissolved in 0.1 M phosphate buffer (pH = 7.4), and initial spectra were recorded from 200 to 800 nm with a prominent peak at 417 nm. The concentration of CBC was varied from 0 to 100 μM keeping the final concentration of substrate in EtOH not more than 1% in cuvette. 0–4 μL of stock CBC was added using a Hamilton syringe in both the sample and blank cuvettes. The mixture was incubated for 5 min at 37 °C, and absorbance spectra were recorded using a Cary Bio 300 UV–vis spectrophotometer (Agilent Technologies, Santa Clara, CA). To eliminate the background absorbance, we derived the final spectra by […].

[1] = molecular target: T2, CYP2J2 in the presence of CPR (Homo sapiens, UniProt P51589); test: Spectroscopic titration, CYP2J2–CPR complex; type: binding
T2 construct: His-tag; made in house; host or cells: E. coli DH-5α with pTGro7 plasmid (CYP)
T2 sequence (P51589 1-502): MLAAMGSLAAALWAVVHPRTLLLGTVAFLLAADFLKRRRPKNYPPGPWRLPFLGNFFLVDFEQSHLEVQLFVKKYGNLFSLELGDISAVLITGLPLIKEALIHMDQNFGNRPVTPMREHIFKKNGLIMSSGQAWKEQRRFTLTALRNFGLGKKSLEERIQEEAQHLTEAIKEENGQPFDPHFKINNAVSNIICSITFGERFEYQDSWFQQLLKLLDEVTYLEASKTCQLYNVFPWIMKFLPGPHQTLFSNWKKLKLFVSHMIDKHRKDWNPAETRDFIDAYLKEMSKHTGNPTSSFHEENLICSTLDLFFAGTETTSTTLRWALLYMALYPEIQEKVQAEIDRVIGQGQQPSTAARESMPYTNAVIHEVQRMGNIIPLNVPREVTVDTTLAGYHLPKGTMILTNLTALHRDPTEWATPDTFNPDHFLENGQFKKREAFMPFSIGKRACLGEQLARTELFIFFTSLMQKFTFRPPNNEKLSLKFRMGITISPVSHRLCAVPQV
T2 sequence (P16435 1-677 partner): T1 sequence (P16435 1-677 partner)
Experimental: For CBC titration to CYP–CPR complex, initially CYPs were dissolved in 400 μL of 0.1 M phosphate buffer (pH = 7.4) keeping the concentration between […]. Following this 50 μL of CPR (50 μM stock) was added to both cuvettes, and the final concentration of both of the proteins was 5–6 μM. Both proteins were initially mixed and incubated for 5 min followed by titration with CBC in the same process as mentioned above. The substrate-bound spectra were then subtracted from substrate-free spectra, and the extent of binding was analyzed using Origin Pro 2020.

CCCCCc1cc(O)c2c(c1)OC(C)(CCC=C(C)C)C=C2 (centres unmarked) [CBC, Cannabichromene]
percentage increase of NADPH consumption in the presence of CBC (CYP2C8 with CPR): ~60%
ΔAmax (spin state change due to heme perturbation) (CYP3A4): 0.11 ± 0.00 and ~0.11
Kd (CYP3A4; read-out: Kd(app)): 9.57 µM and ~9.5 µM
ΔAmax (spin state change due to heme perturbation) [1]: 0.09 ± 0.00 and ~0.1
Kd ([1]; read-out: Kd(app)): 1.19 µM and < 10 µM and ~1 µM
